Experimental data taken from patent EP4745153A1, “GLP-1, GIP AND GCG RECEPTOR […] USE THEREOF” (Jiangsu Hengrui Pharmaceuticals Co., Ltd., priority 2023, dated 2025).
Where two headings read alike, the source gives them in different places. Starred links: 1 amine or outer side, 2 acyl side, 3 side chain; linkers in the order of their positions; H or OH if unused. Non-standard residues stand in square brackets, D forms with d. Residues, ends and D or L forms follow the SMILES beside them. Groups on a side chain read outwards from the residue. *: point of attachment. C20 diacid = O=C(O)CCCCCCCCCCCCCCCCCCC(=O)*; γGlu = O=C(O)[C@H](CCC(=O)[*:2])N[*:1]; AEEA = NCCOCCOCC(=O)O; Aib = CC(C)(N)C(=O)O

Legend:
human GLP-1R = target: T1, human GLP-1R (Homo sapiens, UniProt P43220); assay: cAMP HTRF agonist activity assay in CHO-K1 cells expressing GLP-1R; format: cell-based; conditions: read-out: Activity against human GLP-1R (EC50 nM); further: 5% FBS, 0.1% Casein
T1 construct: expressed in transfected cells; host or cells: CHO-K1 clonal cell line
T1 sequence (P43220 24-463): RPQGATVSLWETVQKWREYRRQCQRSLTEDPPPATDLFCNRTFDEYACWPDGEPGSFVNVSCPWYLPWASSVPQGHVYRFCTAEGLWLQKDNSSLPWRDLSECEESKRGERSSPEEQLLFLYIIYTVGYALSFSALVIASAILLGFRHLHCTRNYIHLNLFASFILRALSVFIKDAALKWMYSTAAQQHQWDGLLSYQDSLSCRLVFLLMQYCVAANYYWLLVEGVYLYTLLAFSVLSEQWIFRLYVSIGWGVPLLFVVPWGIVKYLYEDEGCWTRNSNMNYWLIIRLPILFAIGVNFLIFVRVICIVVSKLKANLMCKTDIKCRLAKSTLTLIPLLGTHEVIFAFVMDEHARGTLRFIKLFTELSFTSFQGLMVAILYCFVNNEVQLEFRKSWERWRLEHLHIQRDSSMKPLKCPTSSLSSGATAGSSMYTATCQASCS
Summary of the method: (§1)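 Clonal CHO-K1 lines, 5000 cells/well, exposed to polypeptides for 30 min at 37°C. Intracellular cAMP read by HTRF (cAMP-d2 conjugate plus anti-cAMP-Eu cryptate in lysis buffer). Relative EC50 from four-parameter nonlinear fit of percent maximum response against concentration.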

[1] = In vivo efficacy in diet-induced obesity (DIO) mouse model; set-up: species or system C57BL/6J mice; conditions: 10 nmol/kg subcutaneous once daily for 24 days; for body weight reduction at the experimental endpoint: DIO mice
Text: In this example, a DIO mouse model established by high-fat diet induction was used to evaluate the effects on and improvement of obesity and diabetes-related indicators in DIO mice after subcutaneous injection of some of the compounds in the present disclosure.
4.1 Experimental methods: Obese male C57BL/6J mice (23-24 weeks old, obtained from Beijing Vital River Laboratory Animal Technology Co., Ltd.) induced by a high-fat diet were purchased. Six-week-old male C57BL/6J mice were fed a 60% high-fat diet (RD D12492) until their body weight reached 45-50g to obtain DIO model mice. After arriving at the facility and undergoing a week of acclimatization feeding, the animals were randomly divided into groups according to their body weight and administered vehicle (model group), LY3437943, Compound 15, Compound 16, Compound 17 and Compound 18 via subcutaneous injection in the neck. The compound was administered at a dose of 10 nmol/kg, and the frequency of administration was once daily via subcutaneous injection for 24 days. Each group contained 5 DIO mice. According to the experimental design, the body weight of each mouse was weighed and recorded daily at 3 pm or before administration, the average body weight of each group of mice was calculated, and a curve of body weight change over time was plotted. After the experiment, the fat and other organs of the mice were removed from various parts of the body, weighed, and recorded.

human GCGR = target: T2, human GCGR (Homo sapiens, UniProt P47871); assay: cAMP HTRF agonist activity assay in CHO-K1 cells expressing GCGR; format: cell-based; conditions: read-out: Activity against human GCGR (EC50 nM); further: 5% FBS, 0.1% Casein
T2 construct: expressed in transfected cells; host or cells: CHO-K1 clonal cell line
T2 sequence (P47871 26-477): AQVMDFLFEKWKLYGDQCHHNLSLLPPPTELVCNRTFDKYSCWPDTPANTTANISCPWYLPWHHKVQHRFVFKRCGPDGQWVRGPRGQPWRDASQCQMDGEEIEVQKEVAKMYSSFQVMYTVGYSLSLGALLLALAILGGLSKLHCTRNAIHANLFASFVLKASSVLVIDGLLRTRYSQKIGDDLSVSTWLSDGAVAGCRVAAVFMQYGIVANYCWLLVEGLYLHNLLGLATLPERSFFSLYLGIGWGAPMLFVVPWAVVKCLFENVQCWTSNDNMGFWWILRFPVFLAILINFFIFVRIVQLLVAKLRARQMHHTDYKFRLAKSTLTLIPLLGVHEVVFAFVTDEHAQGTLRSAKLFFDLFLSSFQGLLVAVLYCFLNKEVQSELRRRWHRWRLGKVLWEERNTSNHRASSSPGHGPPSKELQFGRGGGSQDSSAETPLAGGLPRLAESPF
Summary of the method: as §1

[2] = In vivo efficacy in diet-induced obesity (DIO) rat model; conditions: DIO rats; for 24h food intake compared with the model group / cumulative food intake compared with the model group: after dose adjustment; for cumulative food intake: entire administration period (before and after dose adjustment)
Description: In this experiment, a DIO rat model established on a 45% high-fat diet (HFD) was used to evaluate the effects of compounds on obesity-related indicators in DIO rats.
After one week of acclimatization, all rats were randomly divided into two groups: a normal group and a model group. The rats in the model group were then fed 45% HFD (Medison: MD12032), while the rats in the normal group were fed normal food. The body weight of the rats was measured weekly to monitor the modeling process.
DIO rats fed a high-fat diet for 37 weeks were weighed, and 75 DIO rats (approximately 1100g) and 8 rats (approximately 800g) on a normal diet (Chow diet) were selected and separated into individual cages. Each cage was fed approximately 100g of food at a time, and the food was changed every 48 hours. A preliminary sham dose experiment was then conducted. Subcutaneous acupuncture was performed on the neck once daily at 4 pm for 9 consecutive days. Body weight was measured before each acupuncture session and the effect of sham dose on body weight was observed. A curve of body weight changes over time was plotted. The formal dosing experiment was initiated after the body weight had stabilized.
Six Chow diet rats (weighing approximately 800g) and 30 HFD rats (weighing approximately 1100g) were selected through a preliminary sham dose experiment for subsequent dosing experiments. […] During the experiment, all rats were housed in single cages. The compound was dissolved in PBS solution at pH 7.4. On the day of grouping (Day 1), rats in each group were given the drug by subcutaneous injection in the neck according to their body weight, once daily (QD), as detailed in Table 9. […] The body weight was measured once daily at 15:00 or before administration, and a curve of body weight changes over time was plotted. Food intake: 1-7 days, measured once daily at 15:00 or before administration; 8-40 days, measured once every three days at 15:00 or before administration. A curve of changes in daily/cumulative food intake over time was plotted. Table 9. Dosing information for experimental groups

human GIPR = target: T3, human GIPR (Homo sapiens, UniProt P48546); assay: cAMP HTRF agonist activity assay in CHO-K1 cells expressing GIPR; format: cell-based; on Activity against human GIPR (EC50 nM): 5% FBS, 0.1% Casein
T3 construct: expressed in transfected cells; host or cells: CHO-K1 clonal cell line
T3 sequence (P48546 22-466): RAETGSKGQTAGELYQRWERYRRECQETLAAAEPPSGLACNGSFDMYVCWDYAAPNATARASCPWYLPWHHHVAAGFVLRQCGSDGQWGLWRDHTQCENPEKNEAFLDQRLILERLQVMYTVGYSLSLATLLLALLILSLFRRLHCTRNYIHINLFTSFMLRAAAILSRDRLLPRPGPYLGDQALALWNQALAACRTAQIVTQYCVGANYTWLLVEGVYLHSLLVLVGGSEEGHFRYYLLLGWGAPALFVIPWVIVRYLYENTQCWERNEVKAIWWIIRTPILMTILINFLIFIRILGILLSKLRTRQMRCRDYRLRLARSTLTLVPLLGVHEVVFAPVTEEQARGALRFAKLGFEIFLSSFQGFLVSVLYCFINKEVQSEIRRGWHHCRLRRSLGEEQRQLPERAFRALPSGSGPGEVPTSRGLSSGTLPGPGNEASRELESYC
Summary of the method: as §1

[3] = Pharmacokinetics in mice after single intravenous injection; set-up: species or system C57 mice; conditions: mouse, in vivo, male C57 mice, single intravenous dose 200 nmol/kg, plasma
Summary of the method: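 Male C57 mice (~25 g, 4-6 weeks, n=3) received a single i.v. dose of 200 nmol/kg in 1×PBS. Plasma collected from 5 min to 72 h was methanol-precipitated with verapamil internal standard and quantified by LC-MS (ESI positive, MRM); PK parameters were calculated by PKSolver.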

SMILES	EC50 (human GLP-1R) [nM]	body weight of DIO mice compared with the test group given the vehicle [1]	body weight reduction at the experimental endpoint [1] [%]	EC50 (human GCGR) [nM]	24h food intake compared with the model group ([2]; 10 nmol/kg subcutaneous QD)	cumulative food intake compared with the model group ([2]; 10 nmol/kg subcutaneous QD)	cumulative food intake ([2]; 1 then 10 nmol/kg subcutaneous QD) [g]	body weight loss at the end of the experiment ([2]; subcutaneous QD, 1 nmol/kg adjusted to 10 nmol/kg from day 15) [%]	EC50 (human GIPR; read-out: Activity against human GIPR (EC50 nM)) [nM]	AUC(0-inf) [3] [µM·h]	C0 [3] [µM]	clearance ([3]; read-out: CLp) [mL/h/kg]	half-life ([3]; read-out: T1/2 (converted)) [h]	final body weight relative to body weight of mice on a normal diet (Chow) ([1]; indicating good safety) [%]	24h food intake compared with the model group ([2]; 3 nmol/kg subcutaneous QD)	cumulative food intake compared with the model group ([2]; 3 nmol/kg subcutaneous QD)	cumulative food intake ([2]; 0.3 then 3 nmol/kg subcutaneous QD) [g]	body weight loss at the end of the experiment ([2]; subcutaneous QD, 0.3 nmol/kg adjusted to 3 nmol/kg from day 15) [%]	body weight compared with the model group ([2]; subcutaneous QD, 1 nmol/kg, before adjusting the administration dose)	EC50 (human GIPR) [nM]
CC[C@H](C)[C@H](NC(=O)[C@H](Cc1ccccc1)NC(=O)[C@H](C)NC(=O)C(C)(C)NC(=O)[C@H](CCC(N)=O)NC(=O)[C@H](C)NC(=O)[C@H](CCCCNC(=O)COCCOCCNC(=O)CC[C@H](NC(=O)CCCCCCCCCCCCCCCCCCC(=O)O)C(=O)O)NC(=O)[C@H](CCCCN)NC(=O)[C@H](CC(=O)O)NC(=O)[C@H](CC(C)C)NC(=O)[C@](C)(CC(C)C)NC(=O)[C@@H](NC(=O)[C@H](CO)NC(=O)[C@H](Cc1ccc(O)cc1)NC(=O)[C@H](CC(=O)O)NC(=O)[C@H](CO)NC(=O)[C@@H](NC(=O)[C@H](Cc1ccccc1)NC(=O)[C@@H](NC(=O)CNC(=O)[C@H](CCC(N)=O)NC(=O)C(C)(C)NC(=O)[C@@H](N)Cc1ccc(O)cc1)[C@@H](C)O)[C@@H](C)O)[C@@H](C)CC)C(=O)N[C@@H](CCC(=O)O)C(=O)N[C@@H](Cc1ccc(O)cc1)C(=O)N[C@@H](CC(C)C)C(=O)N[C@@H](CC(C)C)C(=O)N[C@@H](CCC(=O)O)C(=O)NCC(=O)NCC(=O)N1CCC[C@H]1C(=O)N[C@@H](CO)C(=O)N[C@@H](CO)C(=O)NCC(=O)N[C@@H](C)C(=O)N1CCC[C@H]1C(=O)N1CCC[C@H]1C(=O)N1CCC[C@H]1C(=O)N[C@@H](CO)C(N)=O [LY3437943, reference compound]	0.08	significant reduction in body weight	30.4	0.412	significantly reduced	significantly reduced	273.8 ± 15.0	29.4	0.002	–	–	–	–	–	–	–	–	–	–	–
CC[C@H](C)[C@H](NC(=O)[C@H](CO)NC(=O)[C@H](Cc1ccc(O)cc1)NC(=O)[C@H](CC(=O)O)NC(=O)[C@H](CO)NC(=O)[C@@H](NC(=O)[C@H](Cc1ccccc1)NC(=O)[C@@H](NC(=O)CNC(=O)[C@H](Cc1c[nH]cn1)NC(=O)C(C)(C)NC(=O)[C@@H](N)Cc1c[nH]cn1)[C@@H](C)O)[C@@H](C)O)C(=O)N[C@@H](CC(C)C)C(=O)N[C@@H](CC(C)C)C(=O)N[C@@H](CCC(=O)O)C(=O)N[C@@H](CCCCNC(=O)COCCOCCNC(=O)COCCOCCNC(=O)CC[C@H](NC(=O)CCCCCCCCCCCCCCCCCCC(=O)O)C(=O)O)C(=O)N[C@@H](CCCCN)C(=O)N[C@@H](C)C(=O)N[C@@H](C)C(=O)N[C@@H](CCC(N)=O)C(=O)N[C@@H](CCC(=O)O)C(=O)N[C@@H](Cc1ccccc1)C(=O)N[C@H](C(=O)N[C@@H](CCC(=O)O)C(=O)N[C@@H](Cc1c[nH]c2ccccc12)C(=O)N[C@@H](CC(C)C)C(=O)N[C@@H](CC(C)C)C(=O)N[C@@H](C)C(=O)NCC(=O)NCC(=O)N1CCC[C@H]1C(=O)N[C@@H](CO)C(=O)N[C@@H](CO)C(=O)NCC(=O)N[C@@H](C)C(=O)N1CCC[C@H]1C(=O)N1CCC[C@H]1C(=O)N1CCC[C@H]1C(=O)N[C@@H](CO)C(N)=O)C(C)C [Compound 0120] (H-H[Aib]HGTFTSDYSILLEK([AEEA-AEEA-γGlu-C20 diacid])KAAQEFVEWLLAGGPSSGAPPPS-NH2)	–	significant reduction in body weight	36.6	–	–	–	–	–	–	94.1	9.93	2.04	14.7	≥ 80	significantly reduced	significantly reduced	258.8 ± 23.5	30.2	decreasing trend	0.002
